In patent EP4778924A1 (Huons Co., Ltd., priority 2023, dated 2025):
“Also recorded” adds a separate entry of the source.

How the values were obtained:
[1] = molecular target: T1, Proton Pump (H^+,K^+-ATPase) (Sus scrofa, UniProt P19156); experiment: Inhibitory activity on proton pump (H+,K+-ATPase) activity, porcine gastric vesicles, malachite green readout; type: biochemical; conditions: for IC50: porcine gastric vesicles, pH 6.5, 8 mM KCl, 0.2 mM ATP; for inhibitory activity against proton pump activity: result in words
T1 construct: gastric vesicles were isolated from porcine stomachs; from tissue; host or cells: porcine stomach (gastric vesicles)
T1 sequence (P19156 2-1034 limits assumed): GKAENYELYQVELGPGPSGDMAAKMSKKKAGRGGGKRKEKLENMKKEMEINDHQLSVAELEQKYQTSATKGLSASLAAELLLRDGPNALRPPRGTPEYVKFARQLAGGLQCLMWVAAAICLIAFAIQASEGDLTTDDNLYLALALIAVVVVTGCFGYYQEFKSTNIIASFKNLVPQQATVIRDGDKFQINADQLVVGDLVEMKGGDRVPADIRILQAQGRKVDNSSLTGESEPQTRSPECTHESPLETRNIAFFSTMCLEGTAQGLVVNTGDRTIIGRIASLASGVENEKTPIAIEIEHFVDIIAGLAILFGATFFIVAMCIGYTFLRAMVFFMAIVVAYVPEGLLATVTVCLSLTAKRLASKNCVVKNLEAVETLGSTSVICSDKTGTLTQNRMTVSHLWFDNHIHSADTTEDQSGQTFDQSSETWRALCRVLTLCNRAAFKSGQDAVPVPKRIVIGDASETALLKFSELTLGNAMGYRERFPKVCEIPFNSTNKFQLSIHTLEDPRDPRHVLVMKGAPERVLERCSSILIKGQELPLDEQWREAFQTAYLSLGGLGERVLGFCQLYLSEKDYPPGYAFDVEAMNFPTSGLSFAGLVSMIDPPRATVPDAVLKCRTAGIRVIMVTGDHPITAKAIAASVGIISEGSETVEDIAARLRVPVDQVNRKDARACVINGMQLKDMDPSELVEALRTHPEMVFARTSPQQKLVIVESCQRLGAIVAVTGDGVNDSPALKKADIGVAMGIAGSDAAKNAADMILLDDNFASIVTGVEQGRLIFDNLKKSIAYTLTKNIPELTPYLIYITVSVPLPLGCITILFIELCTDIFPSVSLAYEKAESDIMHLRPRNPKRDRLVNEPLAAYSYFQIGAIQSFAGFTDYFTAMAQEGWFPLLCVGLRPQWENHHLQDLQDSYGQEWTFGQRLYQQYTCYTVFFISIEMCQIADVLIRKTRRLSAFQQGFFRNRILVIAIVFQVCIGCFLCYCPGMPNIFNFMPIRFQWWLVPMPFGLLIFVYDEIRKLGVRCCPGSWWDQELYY
T1 sequence (P18434 whole entry partner): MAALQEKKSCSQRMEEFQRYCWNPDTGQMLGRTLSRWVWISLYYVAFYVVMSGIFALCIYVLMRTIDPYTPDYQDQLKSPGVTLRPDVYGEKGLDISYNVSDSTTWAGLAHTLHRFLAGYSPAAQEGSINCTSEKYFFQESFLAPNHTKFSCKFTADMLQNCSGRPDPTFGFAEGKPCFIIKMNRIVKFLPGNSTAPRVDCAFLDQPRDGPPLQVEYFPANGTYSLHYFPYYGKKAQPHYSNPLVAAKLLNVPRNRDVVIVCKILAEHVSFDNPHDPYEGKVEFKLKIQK
Summary of the method: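 Porcine gastric vesicles (100 ng) preincubated 30 min at 37°C with […] valinomycin and compound (0.1% DMSO final) in 50 mM Tris-HEPES, 5 mM MgCl2, 8 mM KCl, pH 6.5, then 0.2 mM ATP for 20 min at 37°C. Released phosphate measured by malachite green at 620 nm; IC50 via nonlinear regression of % inhibition.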

Pylorus-Ligated Rats = experiment: Inhibitory activity on basal gastric acid secretion in pylorus-ligated rats (Shay's rat model); type: in vivo, male Sprague Dawley (SD) rats; conditions: for inhibition in vivo at 2 mg/kg: Rattus norvegicus, po, read-out: GERD (rat/mpk); for inhibitory activity against basal gastric acid secretion: result in words, pyloric-ligated rats
Protocol: Specifically, male Sprague Dawley (SD) rats (weighing 180-220 g) were fasted for 24 hours with only water, and then randomly assigned to groups (n=4-5) after measuring body weight. The negative control group was orally administered 10% dimethylsulfoxide (DMSO)/10% Cremophor EL/80% D.W. at 2 mL/kg, and the test group was orally administered the test compound at 2 mg/kg/2 mL. One hour after administration, the rats' abdominal cavity was incised under isoflurane anesthesia, the stomach was exposed, and the pylorus was ligated. Three hours after ligation, the test animals were sacrificed and the stomach contents were collected by laparotomy again. The contents were centrifuged (3,000 rpm, 10 min), and only the supernatant was separated to obtain gastric juice. Afterwards, gastric fluid volume measurement, gastric fluid pH measurement, NaOH titration, and total gastric acid secretion calculation (gastric fluid volume × 0.1 N NaOH titer × 100) were sequentially performed.

Structure (SMILES) | IC50 [1] [nM] | inhibitory activity against proton pump activity [1] | inhibition in vivo at 2 mg/kg (Pylorus-Ligated Rats) [%] | inhibitory activity against basal gastric acid secretion (Pylorus-Ligated Rats; 2 mg/kg oral) | GERD (rat/mpk) (Pylorus-Ligated Rats; % inhibitory activity on total gastric acid secretion, 2 mg/kg oral, pylorus ligated 1 h after administration, stomach contents collected 3 h after ligation) | inhibitory activity against basal gastric acid secretion (Pylorus-Ligated Rats; 2 mg/kg oral, citrate, 2 mg/kg)
COCC(=O)Nc1cc(NCc2c(C)cc(F)cc2C)c2nc(C)c(C)n2c1.O=C(O)CC(O)(CC(=O)O)C(=O)O [Example 100, N-(8-((4-fluoro-2,6-dimethylbenzyl)amino)-2,3-dimethylimidazo[1,2-a]pyridin-6-yl)-2-methoxyacetamide citrate] | < 50 | – | ≥ 90 | inhibitory activity | – | –
COCC(=O)Nc1cc(NCc2c(C)cccc2C)c2nc(C)c(C)n2c1 [Example 15, N-(8-((2,6-dimethylbenzyl)amino)-2,3-dimethylimidazo[1,2-a]pyridin-6-yl)-2-methoxyacetamide] | < 50 | excellent inhibitory properties | ≥ 90 | inhibitory activity | – | –
Cc1cccc(C)c1CNc1cc(NC(=O)CCO)cn2c(C)c(C)nc12.O=C(O)CC(O)(CC(=O)O)C(=O)O [Example 102, N-(8-((2,6-dimethylbenzyl)amino)-2,3-dimethylimidazo[1,2-a]pyridin-6-yl)-3-hydroxypropanamide citrate] | < 50 | – | ≥ 90 | inhibitory activity | – | –
CC(=O)Nc1cc(NCc2c(C)cc(F)cc2C)c2nc(C)c(C)n2c1.Cl [Example 45, N-(8-((4-fluoro-2,6-dimethylbenzyl)amino)-2,3-dimethylimidazo[1,2-a]pyridin-6-yl)acetamide hydrochloride] | – | – | – | inhibitory activity | A (A≥90%) | –
CC(=O)Nc1cc(NCc2c(C)cccc2C)c2nc(C)c(C)n2c1 [Example 4, N-(8-((2,6-dimethylbenzyl)amino)-2,3-dimethylimidazo[1,2-a]pyridin-6-yl)acetamide] | < 50 | excellent inhibitory properties | ≥ 90 | inhibitory activity | – | –
Cc1cccc(C)c1CNc1cc(N2C(=O)CNC2=O)cn2c(C)c(C)nc12 [Example 60, 3-(8-((2,6-dimethylbenzyl)amino)-2,3-dimethylimidazo[1,2-a]pyridin-6-yl)imidazolidine-2,4-dione] | < 50 | excellent inhibitory properties | ≥ 90 | inhibitory activity | – | –
Cc1cc(F)cc(C)c1CNc1cc(NC(=O)CO)cn2c(C)c(C)nc12.O=C(O)CC(O)(CC(=O)O)C(=O)O [Example 86, N-(8-((4-fluoro-2,6-dimethylbenzyl)amino)-2,3-dimethylimidazo[1,2-a]pyridin-6-yl)-2-hydroxyacetamide citrate] | < 50 | – | ≥ 90 | inhibitory activity | – | –

Now from value to compound, other results behind:

IC50 [1] [nM] | inhibitory activity against proton pump activity [1] | Structure (SMILES) | inhibition in vivo at 2 mg/kg (Pylorus-Ligated Rats) [%] | inhibitory activity against basal gastric acid secretion (Pylorus-Ligated Rats; 2 mg/kg oral) | GERD (rat/mpk) (Pylorus-Ligated Rats; % inhibitory activity on total gastric acid secretion, 2 mg/kg oral, pylorus ligated 1 h after administration, stomach contents collected 3 h after ligation) | inhibitory activity against basal gastric acid secretion (Pylorus-Ligated Rats; 2 mg/kg oral, citrate, 2 mg/kg)
< 50 | excellent inhibitory properties | Cc1cccc(C)c1CNc1cc(NC(=O)CO)cn2c(C)c(C)nc12 [Example 26, N-(8-((2,6-dimethylbenzyl)amino)-2,3-dimethylimidazo[1,2-a]pyridin-6-yl)-2-hydroxyacetamide] | ≥ 90 | inhibitory activity | – | –
< 50 | excellent inhibitory properties | CC(=O)Nc1cc(NCc2c(C)cc(F)cc2C)c2nc(C)c(C)n2c1 [Example 21, N-(8-((4-fluoro-2,6-dimethylbenzyl)amino)-2,3-dimethylimidazo[1,2-a]pyridin-6-yl)acetamide] | ≥ 90 | inhibitory activity | – | –
< 50 | – | Cc1cc(F)cc(C)c1CNc1cc(NC(=O)CCO)cn2c(C)c(C)nc12.O=C(O)CC(O)(CC(=O)O)C(=O)O [Example 101, N-(8-((4-fluoro-2,6-dimethylbenzyl)amino)-2,3-dimethylimidazo[1,2-a]pyridin-6-yl)-3-hydroxypropanamide citrate] | 70 to 80 | – | – | inhibitory activity; also recorded: somewhat reduced
